SMILES strings stand for the structures.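 These data come from cells grown in 96-well plates and exposed to compound for 48 hours at five concentrations. GI50 is the concentration that inhibits growth by half. At the TGI there is no net growth.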

Assay in all cases: NCI tumour cell line growth inhibition, 48 h
Assay [1] relates to CAKI-1 renal.
The test system of assay [2] is CCRF-CEM leukemia.
For assay [3], the system named is EKVX NSCLC.
For assay [4], the system named is HCT-15 colon.
Assay [5] has as its system IGROV1 ovarian.
Assay [6] relates to NCI-H226 lung.
Assay [7] deals with RPMI-8226 leukemia.
Assay [8] has as its system RXF 393 renal.
For assay [9], the system named is UO-31 renal.
For assay [10], the system named is HS 578T breast.

Consider `CN(C)CCC1(C2=CCCC2)CC/C(=C\c2ccccc2)C1=O` (stereo not drawn), for which the TGI in assay [1] stood at 26.3 µM; in assay [2], 50.3 µM; in assay [3], 25.7 µM; in [4], 26.6 µM; in [5], 29.8 µM; in assay [6], 31.1 µM. The TGI in [7] was determined as 35.1 µM; in [8], 26.6 µM; in assay [9] it was 30.7 µM.
For `CC(C)CC(=O)NS(=O)(=O)c1ccccc1`, the TGI in [1], in [2], in assay [3], in assay [4], in assay [5] and in [6] was over 100 µM throughout. Further, the TGI in [7], in [8] and in assay [9] was over 100 µM in each case.
As to `CC1(C)OC(=O)C(=C2CC(c3ccccc3)c3ccccc32)C(=O)O1` (stereo not drawn), the TGI in [1], in [2], in assay [3], in [4], in assay [5] and in assay [6] was over 100 µM in each case. The TGI in assay [7], in assay [8] and in [9] was over 100 µM each time.
Take `Cc1nc2cc(N)c(Cl)cc2[nH]1`: the TGI in [1], in assay [2], in assay [3], in [4], in assay [10] and in assay [5] was over 100 µM in each case. For the same compound, the TGI in [6], in assay [7] and in assay [9] was over 100 µM each time.
Consider `COc1cc(OC)cc(-c2cncn2-c2ccc(-c3nc4cc(OC)c(OC)c(OC)c4s3)cc2)c1`, for which the GI50 in [1] was 3.79 µM; in assay [3], 1.87 µM; in [4] it was 5.72 µM; in assay [10] it was 20.9 µM; in [5], 9.6 µM; in assay [6], 21.7 µM. The results for the GI50 in [7], in assay [8] and in [9] were 2.9 µM, 30.2 µM and 1.94 µM, respectively. Further, the TGI in assay [1], in assay [3], in assay [4], in assay [10], in assay [5] and in assay [6] was over 100 µM each time. The TGI in assay [7] was over 100 µM; in [8], over 100 µM; in assay [9], 58.9 µM.
Turning to `O=C([O-])c1ccccc1Nc1ccccc1[O-].[Ni+3].[OH3+].[OH3+].[OH3+]`, the GI50 in assay [1] is over 100 µM; in [2] it was over 100 µM; in assay [3], over 100 µM; in [4] it was over 100 µM; in [5], over 100 µM; in [6] it was 88.4 µM. Further, the GI50 in assay [7], in assay [8] and in [9] was over 100 µM throughout. The TGI in [1], in assay [2], in [3], in assay [4], in [5] and in [6] was over 100 µM in each case. In addition, the TGI in [7], in assay [8] and in assay [9] was over 100 µM throughout.
Regarding `CC(C)Oc1ccc(C(=O)N[C@H](CNC(=O)CN(C)C)Cc2ccc(-c3cn4cccc([C@H](C)O)c4n3)cc2)cc1Cl`, the GI50 in [1] was 0.538 µM; in assay [3], 0.0547 µM; in assay [4] it was 0.423 µM; in assay [10], 1.38 µM; in assay [5] it was 11.1 µM; in [6], 10.9 µM. Also, the results for the GI50 in assay [7], in assay [8] and in [9] were 0.0399 µM, 0.0711 µM and 2.56 µM, respectively. Further, the TGI in assay [1] was found to be 17.9 µM; in assay [3], 21.6 µM; in assay [4], 19.4 µM; in assay [10] it was 33.4 µM; in assay [5], 31 µM; in [6], 28.8 µM. Besides, the TGI in assay [7] amounted to 19.8 µM; in assay [8], 13.4 µM; in assay [9] it was 19.1 µM.
For the compound `CCN(CC(COc1ccc2c(c1)[n+]([O-])nc(N)[n+]2[O-])OC(C)=O)C(C)=O` (stereo not drawn), the TGI in assay [1], in assay [2], in [3], in [4], in assay [10] and in assay [5] was over 100 µM throughout. The TGI in assay [6], in assay [7] and in [9] was over 100 µM in each case.
With `O=C1C(N2C(=O)c3ccccc3C2=O)CN1C(COCc1ccccc1)c1ccc(OCc2ccccc2)cc1` (stereo not drawn), the TGI in assay [1], in assay [2], in assay [3], in assay [4], in assay [5] and in [6] was over 100 µM each time. The TGI in [7], in assay [8] and in assay [9] was over 100 µM in each case.
`CCN1CCN(C(=O)[C@]23CCC(C)(C)C[C@@H]2C2=CC[C@@H]4[C@@]5(C)C/C(=C/c6cccnc6)C(=O)C(C)(C)[C@@H]5CC[C@@]4(C)[C@]2(C)CC3)CC1`: the GI50 was 2.08 µM in [1]; 2.1 µM in [2]; 1.9 µM in assay [3]; 1.08 µM in assay [4]; 1.83 µM in assay [10]; 1.91 µM in [5]. Also, the GI50 in [7] is 0.959 µM; in assay [8], 1.42 µM; in assay [9], 1.35 µM. The TGI in assay [1] was 11.8 µM; in assay [2], 9.02 µM; in [3], 6.48 µM; in assay [4], 2.71 µM; in [10], 5.37 µM; in [5], 4.16 µM. The TGI in [7] was found to be 5.13 µM; in assay [8] it was 2.77 µM; in assay [9] it was 2.67 µM.
Turning to `CC1=CC2C(C(C)C)CC1C1C(=O)OC(=O)C21` (stereo not drawn), the TGI in assay [3], in assay [4], in assay [10], in assay [5], in assay [6] and in [8] was over 100 µM throughout. Besides, in assay [9], the TGI is over 100 µM.

The values above are taken from PubChem BioAssay (NCI).
